Measurements as given in patent publication US5574008A, “Biologically active fragments of glucagon-like insulinotropic peptide” (Eli Lilly and Company, priority 1994, dated 1996).

Tested on: fasted normal Sprague-Dawley rats
Assay: In vivo hyperglycemic clamp assay (glucose up-take assay)
Design: species or system rat
Details: 200 mg/dl plasma glucose clamp, 0.3 nmol/kg iv bolus at 60 min
Text: In vivo Hyperglycemic Clamp Assay (Glucose Up-take Assay) Male Sprague-Dawley rats (Charles Rivers) weighing about 350 grams were allowed to acclimate to their surroundings for a week after which they were cannulated under isoflurane inhalation anesthetic. Two catheters were implanted into the jugular vein for infusions of glucose and GLP-1 fragment. Another catheter was implanted into the carotid artery for sampling blood. The catheters were exteriorized through the skin at the vertex of the head, filled with a glycerol/heparin solution (30 ml glycerol/10 ml heparin from a 1000 u/ml stock solution), and closed off with a one centimeter stainless steel plug. The rats were housed individually in wire mesh cages and were fed ad libitum on a standard rat chow diet. Each animal was given at least one week to recover from surgery before testing any GLP-1 fragments for biological activity. The rats were fasted overnight; on the morning of the experiment, sampling tubes were connected to the indwelling catheters, and the tubes were enclosed in a light weight stainless steel spring for protection. The rats were acclimated to their cages for 15 minutes. All experiments were carried out in conscious, free moving rats. A basal blood sample was taken for measurement of insulin and glucose levels at time zero on the timer. The rats were then given a bolus of 20% dextrose to raise plasma glucose to either 150 mg/dl (8.3 mM) or 200 mg/dl (11.2 mM). Plasma glucose levels were maintained at the chosen level by measuring plasma glucose levels approximately every 5 minutes and adjusting the calibrated variable infusion pump as needed to maintain the established blood glucose levels. Blood samples were collected at 45 and 60 minutes for the control period measurements. At 60 minutes into the clamp, 0.3 nmol/kg of the experimental GLP-1 fragment was injected via the jugular vein catheter and flushed with saline. […] The blood samples were centrifuged in a micro centrifuge to separate the plasma component. Plasma glucose was measured on a Beckman Glucose analyzer II using the glucose oxidase method. Plasma insulin was determined by standard radio immunoassay as per the manufacturer's directions (Diagnostic Products Corp.). The activity of the GLP-1 fragment was determined by the percentage change in glucose infusion rate and change in insulin secreted. These two parameters were compared to control rats that received only diluent. Note: This assay is based on reports that GLP-1 insulinotropic action is glucose dependent. The assay protocol eliminates variability due to falling glucose levels in other protocols using the "bolus" method. The hyperglycemic clamp involved administration of variable amounts of glucose (20% dextrose) to maintain glucose at a constant level of 8.3 or 11.2 mM in fasted normal Sprague-Dawley rats. The hyperglycemic clamp is maintained for 1 hour after which the GLP-1 fragment is injected as a bolus through the jugular vein. […] The glucose infusion rate (GIR) in the last 15 minutes of the control period and after the injection of the peptide is calculated. The activity of the peptide is determined by the increase in glucose infusion rate and change in insulin secreted after the injection of the peptide.

In the case of `CC[C@H](C)[C@H](NC(=O)[C@H](Cc1ccccc1)NC(=O)[C@H](CCC(=O)O)NC(=O)[C@H](CCCCN)NC(=O)[C@H](C)NC(=O)[C@H](C)NC(=O)[C@H](CCC(N)=O)NC(=O)CNC(=O)[C@H](CCC(=O)O)NC(=O)[C@H](CC(C)C)NC(=O)[C@H](Cc1ccc(O)cc1)NC(=O)[C@H](CO)NC(=O)[C@H](CO)NC(=O)[C@@H](NC(=O)[C@H](CC(=O)O)NC(=O)[C@H](CO)NC(=O)[C@@H](NC(=O)[C@H](Cc1ccccc1)NC(=O)[C@@H](NC(=O)CNC(=O)[C@@H](N)CCC(=O)O)[C@@H](C)O)[C@@H](C)O)C(C)C)C(=O)N[C@@H](C)C(=O)N[C@@H](Cc1c[nH]c2ccccc12)C(=O)N[C@@H](CC(C)C)C(=O)N[C@H](C(=O)N[C@@H](CCCCN)C(=O)NCC(=O)N[C@@H](CCCNC(=N)N)C(N)=O)C(C)C` [GLP-1(9-36)NH2], the “% Change in GIR” value (time 60 min) is reported as 21.936%, the “Plasma Insulin Change” value (time 60 min) is reported as 2.429 ng/mL and the “% Change in GIR” value (time 62 min) is reported as -1.287%. The “Plasma Insulin Change” value (time 62 min) was -0.521 ng/mL, the “% Change in GIR” value (time 64 min) was 0.635% and the “Plasma Insulin Change” value (time 64 min) was -0.765 ng/mL. The “% Change in GIR” value (time 66 min) was 10.697%, the “Plasma Insulin Change” value (time 66 min) was -0.637 ng/mL and the “% Change in GIR” value (time 68 min) was 24.584%. The “Plasma Insulin Change” value (time 68 min) was -0.662 ng/mL, the “% Change in GIR” value (time 70 min) was 46.387% and the “Plasma Insulin Change” value (time 70 min) was -0.274 ng/mL. For the same compound, the “% Change in GIR” value (time 75 min) was 61.185%, the “Plasma Insulin Change” value (time 75 min) was 0.138 ng/mL and the “% Change in GIR” value (time 80 min) was 48.254%. The “Plasma Insulin Change” value (time 80 min) was -0.390 ng/mL, the “% Change in GIR” value (time 85 min) was 34.689% and the “Plasma Insulin Change” value (time 85 min) was 0.064 ng/mL. For the same compound, the “% Change in GIR” value (time 90 min) was 17.272%, the “Plasma Insulin Change” value (time 90 min) was -0.361 ng/mL and the “% Change in GIR” value (time 100 min) was 7.537%. For the same compound, the “Plasma Insulin Change” value (time 100 min) was -0.743 ng/mL, the “% Change in GIR” value (time 110 min) was -0.920% and the “Plasma Insulin Change” value (time 110 min) was -0.824 ng/mL. For the same compound, the “% Change in GIR” value (time 120 min) was 4.716%, the “Plasma Insulin Change” value (time 120 min) was -0.880 ng/mL and the “% Change in GIR” value (time 130 min) was 3.818%. For the same compound, the “Plasma Insulin Change” value (time 130 min) was -0.653 ng/mL, the “% Change in GIR” value (time 140 min) was -6.783% and the “Plasma Insulin Change” value (time 140 min) was -0.927 ng/mL. For the same compound, the “% Change in GIR” value (time 150 min) was 1.333% and the “Plasma Insulin Change” value (time 150 min) was -0.450 ng/mL.
